{"source": "patent US6924314B2", "about": "“Compounds for the treatment of metabolic disorders” (Wellstat Therapeutics Corporation, priority 2001, dated 2005)", "key": {"[1]": {"system": "streptozotocin diabetic mice", "assay": "Serum chemistries and body weights in streptozotocin diabetic mice treated with oral Compound AH for 14 weeks", "type": "in vivo, Balb/C mice", "description": "Streptozotocin (STZ) is a toxin that selectively destroys insulin-producing pancreatic beta cells, and is widely used to induce insulin-dependent diabetes in experimental animals.\nFemale Balb/C mice (8 weeks old; 18-20 grams body weight) were treated with streptozotocin (STZ) (50 mg/kg i.p. on each of five consecutive days). Fourteen days after the last dose of STZ, blood glucose was measured to verify that the animals were diabetic, and the mice were divided into two groups of 5 animals each, one group receiving Compound AH (250 mg/kg) daily by oral gavage, and the other receiving vehicle (0.75% hydroxypropylmethylcellulose, a suspending agent, in water). […] Blood samples were taken periodically for determination of blood glucose concentrations, and body weights were also recorded.\nBody weights and blood glucose, triglyceride and cholesterol concentrations 14 weeks after the beginning of drug treatment are shown in Table 1."}, "[2]": {"system": "mice with lethal insulin-dependent diabetes", "assay": "Survival of mice with lethal insulin-dependent diabetes (single dose streptozotocin)", "type": "in vivo, Balb/C mice", "conditions": "250 mg/kg/day oral gavage", "description": "Female Balb/C mice (14 weeks old) were treated with a single dose of streptozotocin (175 mg/kg i.p.) to induce severe insulin-dependent diabetes. Seven days later, mice were divided into three treatment groups: Compound AH, pioglitazone, and vehicle. Mice were treated daily via oral gavage, and survival was monitored over time."}, "NOD mice": {"system": "NOD mice", "assay": "Incidence of spontaneous diabetes and mortality in NOD mice", "type": "in vivo", "conditions": "200 mg/kg/day oral, seven months", "description": "A substantial proportion of NOD (“non-obese diabetic”) mice develop insulin-dependent diabetes as a consequence of spontaneous autoimmune destruction of pancreatic islet cells. Two groups of 20 NOD mice (6 weeks old) were treated daily with either oral Vehicle (0.4 ml of 0.75% hydroxypropyl methylcellulose in water; HPMC) or Compound AH (200 mg/kg/day) suspended in HPMC. The incidence of mortality due to spontaneous development of severe insulin-dependent diabetes was monitored over a period of seven months. At the end of this time, 13/20 mice treated with vehicle had died of uncontrolled diabetes, whereas only 5/20 mice treated with Compound AH had died."}, "[3]": {"system": "ob/ob obese diabetic mice", "assay": "Acute hypoglycemic effect in ob/ob obese diabetic mice: Experiment 1", "type": "in vivo", "conditions": "single oral dose by gavage, 6 hours", "description": "Male ob/ob diabetic mice were randomized into groups of five animals each. Body weights were 50-55 g and blood glucose was approximately 300 mg/dL in the fed state. A single oral dose of a test substance suspended in 0.5% carboxymethylcellulose vehicle was administered by gavage. Blood glucose was measured in blood droplets obtained by nicking a tail vein with a razor using glucometer test strips and a Glucometer Elite XL device (Bayer) at 0, 0.5, 2, 4, 6 and 18 hours after the initial dosing. A 10% reduction in blood glucose versus oral vehicle is considered a positive screening result. Blood glucose reductions were generally maximal at 6 hours after drug administration."}, "[4]": {"conditions": "streptozotocin diabetic Balb/C mice, 250 mg/kg daily oral gavage, 14 weeks"}}, "data": [{"smiles": "O=C(O)CCC(=O)c1ccc(OCc2c(F)cccc2F)cc1", "note": "[Compound AH, 4-(4-(2,6-Difluorobenzyloxy)phenyl)-4-oxobutyric acid]", "values": [{"measurement": "blood glucose concentrations", "setting": "[1]; 250 mg/kg daily oral, after several weeks of treatment", "result": "began to decrease toward baseline"}, {"measurement": "metabolic abnormalities associated with insulin-dependent diabetes", "setting": "[1]; oral treatment, 250 mg/kg daily", "result": "significant amelioration"}, {"measurement": "Body Weight", "setting": "[1]; [4]", "result": "21.7 ± 0.8", "unit": "g"}, {"measurement": "Cholesterol", "setting": "[1]; [4]", "result": "82 ± 2", "unit": "mg/dL"}, {"measurement": "Glucose", "setting": "[1]; [4]", "result": "207 ± 12", "unit": "mg/dL"}, {"measurement": "Triglycerides", "setting": "[1]; [4]", "result": "62 ± 7", "unit": "mg/dL"}, {"measurement": "body weights of survivors at 12 weeks", "setting": "[2]", "result": "recovered and were maintained in the normal range"}, {"measurement": "Survivors (Survival at 12 weeks)", "setting": "[2]; STZ 175 mg/kg i.p. Balb/C mice", "result": "4/5"}, {"measurement": "mortality due to spontaneous severe insulin-dependent diabetes", "setting": "NOD mice", "result": "5/20"}, {"measurement": "% Reduction vs Control", "setting": "[3]", "result": "−24.9 ± 3.7", "unit": "%"}, {"measurement": "Blood Glucose after 6 hours", "setting": "[3]", "result": "223 ± 11", "unit": "mg/dL"}]}]}
